Assay results published in patent US20250288627A1, “COMPOSITION FOR AMELIORATING, PREVENTING OR TREATING SYSTEMIC SCLEROSIS AND PULMONARY FIBROSIS CONTAINING BIFIDOBACTERIUM LONGUM RAPO” (INDUSTRY-ACADEMIC COOPERATION FOUNDATION GYEONGSANG …, priority 2024, published 2025).

System: mice with idiopathic pulmonary fibrosis
Experiment: Single/combination administration of pirfenidone and Bifidobacterium longum RAPO in idiopathic pulmonary fibrosis mice (intratracheal BLM 2 U/mouse kg)
Type: in vivo
Details: for pulmonary fibrosis: FIG. 3
From the text: To determine whether or not administration of a combination of pirfenidone (PFD), which is a conventional approved and used drug for pulmonary fibrosis, with Bifidobacterium longum RAPO, has a synergistic therapeutic effect due to Bifidobacterium longum RAPO, the inhibitory effects on pulmonary fibrosis after single and combination administration of PFD and Bifidobacterium longum were compared and evaluated in mice with idiopathic pulmonary fibrosis.
Idiopathic pulmonary fibrosis was induced by a single intratracheal injection of 50 μL (2 U/mouse kg) of BLM into 8-week-old male C57BL/6 mice to induce pulmonary fibrosis. Pirfenidone (PFD) and Bifidobacterium longum RAPO were administered orally 5 times a week for a total of 2 weeks, starting 7 days after inducing pulmonary fibrosis with BLM until the 21st day, the end date of the experiment. The administration groups and doses were as follows: 1) Normal control group: normal mice that were not administered any treatment; 2) disease control group: IPF mice administered vehicle containing neither PFD nor Bifidobacterium longum RAPO; 3) P100 group: IPF mice administered PFD 100 mg/mouse kg; 4) P200 group: IPF mice administered PFD 200 mg/mouse kg; 5) RAPO-A group: IPF mice administered Bifidobacterium longum RAPO 1×10^8 CFU/mouse; 6) RAPO-B group: IPF mice administered Bifidobacterium longum RAPO 5×10^8 CFU/mouse; 8) Comb A group: IPF mice administered a combination of PFD 100 mg/mouse kg and Bifidobacterium longum RAPO 1×10^8 CFU/mouse; 7) Comb B group: IPF mice administered a combination of 100 mg/mouse kg and Bifidobacterium longum RAPO 5×10^8 CFU/mouse. Efficacy evaluation was performed as follows. Lung tissues of mice with fibrosis induced on the 21st day after the start of BLM administration were sampled and fixed with formalin to form paraffin tissue blocks. The formed paraffin blocks were cut into 5 μm thick sections with a microtome and stained with Masson-Trichrome (MT), and the degree of pulmonary fibrosis was evaluated by analysis of an Ashcroft score, a collagen area, and an alveoli area.

[1] = P100 group: PFD 100 mg/mouse kg alone, compared to vehicle group

In the case of `Cc1ccc(=O)n(-c2ccccc2)c1` [PFD, pirfenidone], the “pulmonary fibrosis amelioration relative to P200 group” value (P100 group: PFD 100 mg/mouse kg alone, compared to P200 group) is reported as “did not ameliorate pulmonary fibrosis comparable to the P200 group”, the Ashcroft score [1] is reported as “improvement” and the collagen area [1] is reported as “improvement”. For the same molecule, the pulmonary fibrosis [1] was “also alleviated pulmonary fibrosis” and the pulmonary fibrosis (P200 group: PFD 200 mg/mouse kg alone, oral, 5 times a week, 2 weeks, compared to vehicle group) was “significantly alleviated pulmonary fibrosis”.
